From patent US20240269139A1, “COMPOUNDS FOR TARGETED PROTEIN DEGRADATION OF KINASES” (DANA-FARBER CANCER INSTITUTE, INC., priority 2020, published 2024)
Read-outs that look alike come from different tables or passages of the source.

Experiments:
Assay type in all cases: cell-based
[1] = target: T1, protein kinases (human kinome) (Homo sapiens, UniProt O14965)
T1 sequence (O14965 1-403): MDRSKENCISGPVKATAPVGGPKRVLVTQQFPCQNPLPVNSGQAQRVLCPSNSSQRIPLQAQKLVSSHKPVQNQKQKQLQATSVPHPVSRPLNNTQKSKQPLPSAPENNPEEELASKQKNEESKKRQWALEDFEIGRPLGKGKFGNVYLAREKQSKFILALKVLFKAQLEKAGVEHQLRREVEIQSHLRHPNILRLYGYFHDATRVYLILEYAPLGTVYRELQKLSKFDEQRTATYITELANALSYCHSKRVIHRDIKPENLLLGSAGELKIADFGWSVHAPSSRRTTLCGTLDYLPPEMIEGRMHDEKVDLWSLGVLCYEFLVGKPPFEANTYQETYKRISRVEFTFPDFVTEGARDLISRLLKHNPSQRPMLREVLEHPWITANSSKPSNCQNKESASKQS

[2] = target: T2, protein kinases (human kinome) (Homo sapiens, UniProt O75385)
T2 sequence (O75385 1-1050): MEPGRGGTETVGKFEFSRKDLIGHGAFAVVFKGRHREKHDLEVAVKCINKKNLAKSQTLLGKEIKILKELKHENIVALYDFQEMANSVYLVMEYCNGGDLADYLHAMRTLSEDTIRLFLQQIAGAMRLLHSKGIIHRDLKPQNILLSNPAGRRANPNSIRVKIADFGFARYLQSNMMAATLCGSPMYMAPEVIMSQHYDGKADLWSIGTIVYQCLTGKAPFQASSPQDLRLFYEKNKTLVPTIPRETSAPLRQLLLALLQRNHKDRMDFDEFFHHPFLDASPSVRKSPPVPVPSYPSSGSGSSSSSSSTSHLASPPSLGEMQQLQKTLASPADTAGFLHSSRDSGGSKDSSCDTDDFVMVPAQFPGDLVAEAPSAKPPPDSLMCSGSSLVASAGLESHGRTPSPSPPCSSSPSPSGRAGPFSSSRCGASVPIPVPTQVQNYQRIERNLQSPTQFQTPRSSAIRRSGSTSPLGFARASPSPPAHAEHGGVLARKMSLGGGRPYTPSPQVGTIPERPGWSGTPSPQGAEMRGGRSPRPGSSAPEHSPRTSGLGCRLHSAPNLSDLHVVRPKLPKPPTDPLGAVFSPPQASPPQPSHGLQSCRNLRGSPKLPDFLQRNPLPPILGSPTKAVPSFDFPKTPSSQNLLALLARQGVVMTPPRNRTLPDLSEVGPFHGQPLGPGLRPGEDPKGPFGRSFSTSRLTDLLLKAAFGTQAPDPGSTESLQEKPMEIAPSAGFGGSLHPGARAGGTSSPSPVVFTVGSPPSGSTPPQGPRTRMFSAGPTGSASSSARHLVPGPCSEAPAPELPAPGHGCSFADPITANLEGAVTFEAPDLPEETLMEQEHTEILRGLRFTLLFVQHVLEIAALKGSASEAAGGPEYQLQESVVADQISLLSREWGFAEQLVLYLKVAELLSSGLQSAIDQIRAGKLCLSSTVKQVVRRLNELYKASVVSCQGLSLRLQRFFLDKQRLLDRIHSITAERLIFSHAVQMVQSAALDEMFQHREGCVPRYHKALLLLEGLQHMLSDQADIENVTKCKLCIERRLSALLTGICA

[3] = target: protein kinases (human kinome) (Homo sapiens, UniProt P16591)
[4] = target: protein kinases (human kinome) (Homo sapiens, UniProt P30291); settings: experiment wp137
[5] = target: protein kinases (human kinome) (Homo sapiens, UniProt Q2M2I8); settings: experiment wp137
[6] = test system: protein kinases (human kinome)
[7] = AURKB Q96GD4-5, experiment wp137

Sequence of protein kinases (human kinome) (Homo sapiens, UniProt P16591) (P16591 whole entry): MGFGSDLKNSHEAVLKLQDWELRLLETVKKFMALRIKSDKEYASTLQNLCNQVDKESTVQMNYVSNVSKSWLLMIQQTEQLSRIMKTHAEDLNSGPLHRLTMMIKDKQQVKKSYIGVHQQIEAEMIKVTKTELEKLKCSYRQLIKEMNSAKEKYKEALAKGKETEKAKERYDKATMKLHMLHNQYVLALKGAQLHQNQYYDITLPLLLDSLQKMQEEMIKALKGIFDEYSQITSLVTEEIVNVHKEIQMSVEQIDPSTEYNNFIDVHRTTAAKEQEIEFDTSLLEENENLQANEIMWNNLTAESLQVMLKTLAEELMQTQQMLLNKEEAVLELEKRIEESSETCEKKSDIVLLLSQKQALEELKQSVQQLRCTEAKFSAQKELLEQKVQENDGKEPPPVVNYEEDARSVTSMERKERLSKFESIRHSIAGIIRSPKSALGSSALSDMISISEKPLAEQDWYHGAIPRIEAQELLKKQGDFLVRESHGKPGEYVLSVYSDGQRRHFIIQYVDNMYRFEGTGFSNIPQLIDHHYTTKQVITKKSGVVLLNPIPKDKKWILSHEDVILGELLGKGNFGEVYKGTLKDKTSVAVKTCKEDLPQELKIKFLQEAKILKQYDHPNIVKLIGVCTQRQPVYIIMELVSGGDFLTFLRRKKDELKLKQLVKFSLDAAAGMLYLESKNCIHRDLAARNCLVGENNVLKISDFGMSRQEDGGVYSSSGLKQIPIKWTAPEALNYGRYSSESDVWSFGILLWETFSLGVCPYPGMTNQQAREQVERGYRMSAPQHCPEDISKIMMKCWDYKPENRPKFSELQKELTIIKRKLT
Sequence of protein kinases (human kinome) (Homo sapiens, UniProt Q2M2I8) (Q2M2I8 whole entry): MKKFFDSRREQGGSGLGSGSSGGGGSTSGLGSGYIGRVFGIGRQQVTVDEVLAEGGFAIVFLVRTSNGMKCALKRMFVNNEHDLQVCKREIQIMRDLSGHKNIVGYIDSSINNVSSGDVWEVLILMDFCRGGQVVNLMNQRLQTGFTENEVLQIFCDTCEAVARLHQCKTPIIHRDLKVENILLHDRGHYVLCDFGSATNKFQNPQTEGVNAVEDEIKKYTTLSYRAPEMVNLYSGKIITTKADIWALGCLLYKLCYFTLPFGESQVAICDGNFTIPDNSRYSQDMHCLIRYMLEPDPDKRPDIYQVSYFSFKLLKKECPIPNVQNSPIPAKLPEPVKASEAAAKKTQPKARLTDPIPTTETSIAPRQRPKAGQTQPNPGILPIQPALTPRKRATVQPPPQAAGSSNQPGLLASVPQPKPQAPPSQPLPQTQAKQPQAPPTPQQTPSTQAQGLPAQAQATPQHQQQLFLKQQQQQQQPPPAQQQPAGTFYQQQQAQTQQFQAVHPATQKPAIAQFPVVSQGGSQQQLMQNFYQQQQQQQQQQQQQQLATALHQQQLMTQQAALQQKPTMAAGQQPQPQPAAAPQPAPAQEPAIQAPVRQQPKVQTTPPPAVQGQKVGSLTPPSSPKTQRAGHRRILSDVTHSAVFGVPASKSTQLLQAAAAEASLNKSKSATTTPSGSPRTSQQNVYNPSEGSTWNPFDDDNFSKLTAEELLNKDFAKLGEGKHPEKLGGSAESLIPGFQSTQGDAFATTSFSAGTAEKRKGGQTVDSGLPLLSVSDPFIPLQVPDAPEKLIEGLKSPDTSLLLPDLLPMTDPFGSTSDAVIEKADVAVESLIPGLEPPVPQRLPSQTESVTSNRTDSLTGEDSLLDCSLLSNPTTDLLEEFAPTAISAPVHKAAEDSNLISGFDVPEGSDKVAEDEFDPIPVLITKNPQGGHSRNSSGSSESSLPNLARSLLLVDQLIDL
Sequence of protein kinases (human kinome) (Homo sapiens, UniProt P30291) (P30291 whole entry): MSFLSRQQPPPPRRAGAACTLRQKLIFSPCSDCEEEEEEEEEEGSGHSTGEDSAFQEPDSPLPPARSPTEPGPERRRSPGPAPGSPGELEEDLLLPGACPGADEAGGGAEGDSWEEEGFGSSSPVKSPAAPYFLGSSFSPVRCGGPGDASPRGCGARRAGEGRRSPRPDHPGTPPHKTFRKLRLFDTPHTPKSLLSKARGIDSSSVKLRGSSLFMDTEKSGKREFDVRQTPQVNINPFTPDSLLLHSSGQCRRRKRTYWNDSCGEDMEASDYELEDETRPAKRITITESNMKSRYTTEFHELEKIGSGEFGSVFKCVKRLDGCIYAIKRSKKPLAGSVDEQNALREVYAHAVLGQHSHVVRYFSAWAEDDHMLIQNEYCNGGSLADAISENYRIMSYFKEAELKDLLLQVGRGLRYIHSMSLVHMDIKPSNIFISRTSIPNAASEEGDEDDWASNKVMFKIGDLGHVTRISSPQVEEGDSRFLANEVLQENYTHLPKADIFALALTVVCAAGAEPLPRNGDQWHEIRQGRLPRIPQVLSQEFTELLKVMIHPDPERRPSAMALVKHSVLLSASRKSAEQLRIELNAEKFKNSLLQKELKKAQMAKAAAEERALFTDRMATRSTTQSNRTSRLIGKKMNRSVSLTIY

CC(C)S(=O)(=O)c1ccccc1Nc1nc(Nc2ccc(N3CCN(CCOCCOCCC(=O)NCCNc4cccc5c4CN(C4CCC(=O)NC4=O)C5=O)CC3)cc2)ncc1Cl (centres unmarked) [TL13.97]
logFC AURKA (O14965) ([1]; experiment wp014): −0.3268 | logFC AURKA (O14965) ([1]; experiment wp137): −1.612 | logFC ([2]; ULK1 (O75385) protein abundance, degrader vs DMSO, down): −1.877 | logFC ULK1 ([2]; ULK1 O75385, experiment wp137): −1.877 | logFC of FER (P16591-1) ([3]; Experiment wp137, down): −2.412 | logFC of FER ([3]; FER P16591-1, experiment wp137): −2.412 | logFC of WEE1 ([4]; WEE1 P30291-1): −1.585 | logFC WEE1 (P30291-1) [4]: −1.585 | logFC AAK1 ([5]; AAK1 (Q2M218-1), down): −2.479 | logFC AAK1 ([5]; AAK1, accession Q2M218-1, direction of change down): −2.479 | logFC [6, 7]: −0.7523 | logFC AURKB [6, 7]: −0.7523 | logFC BUB1B ([6]; Accession O60566-3, experiment wp137, direction down): −0.3313 | logFC of SRC ([6]; Accession P12931-2, experiment wp137): −0.4824 | logFC of CDK17 ([6]; Accession Q00537-2, experiment wp137): −0.5683 | logFC BUB1B ([6]; BUB1B (O60566-3), experiment wp137): −0.3313 | logFC ([6]; CDK9 (P50750-2) protein abundance, degrader vs DMSO, down): −1.37 | logFC PRKAA1 (Q13131-2) ([6]; Experiment wp137, direction down): −0.6678 | logFC LCK ([6]; LCK, accession P06239-3, experiment wp137, direction of change down): −0.8721 | logFC RPS6KA1 ([6]; RPS6KA1 (Q15418-2), experiment wp137): −0.3757 | logFC ([6]; SRC (P12931-2) protein abundance, degrader vs DMSO, down): −0.4824 | logFC CDK9 (P50750-2) ([6]; experiment wp137): −1.37 | logFC PRKAA1 (Q13131-2) ([6]; experiment wp137): −0.6678 | logFC RPS6KA1 (Q15418-2) ([6]; experiment wp137): −0.3757 | logFC of CDK17 (Q00537-2) ([6]; experiment wp137): −0.5683 | logFC LCK (P06239-3) ([6]; experiment wp137, direction of change down): −0.8721
